Measurements published in ChEMBL document CHEMBL1250483, “Three-dimensional quantitative structure-activity relationship CoMSIA/CoMFA and LeapFrog studies on novel series of bicyclo [4.1.0] heptanes derivatives as melanin-concentrating hormone receptor R1 antagonists” (Eur J Med Chem, 2010).

These compounds were tested against Melanin-concentrating hormone receptor 1 (Homo sapiens, UniProt Q99705) (assay: Antagonist activity at MCH1 receptor).
Assay type: functional

Sequence of Melanin-concentrating hormone receptor 1 (Q99705 whole entry): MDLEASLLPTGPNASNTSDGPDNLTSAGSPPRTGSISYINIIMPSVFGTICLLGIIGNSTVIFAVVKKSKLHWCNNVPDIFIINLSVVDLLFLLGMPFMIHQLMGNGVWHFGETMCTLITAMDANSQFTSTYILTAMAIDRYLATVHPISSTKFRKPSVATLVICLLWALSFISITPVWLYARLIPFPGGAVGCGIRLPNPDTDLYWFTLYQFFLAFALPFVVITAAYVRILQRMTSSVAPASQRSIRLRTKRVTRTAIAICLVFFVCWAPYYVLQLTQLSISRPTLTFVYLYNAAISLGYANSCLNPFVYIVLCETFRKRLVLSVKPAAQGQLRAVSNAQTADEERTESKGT

Row | Ki | Structure (SMILES)
1 | 8.71 nM | CC(C)N(CCO)CCN(C(=O)Nc1ccc(F)c(Cl)c1)C1CC[C@]2(c3cccc(C#N)c3)CC2C1 (stereo partly drawn)
2 | 8.89 nM | CS(=O)(=O)N1CCC(CN(C(=O)Nc2cc(Cl)nc(Cl)c2)C2CC[C@]3(c4cccc(CN5CC[C@H](O)C5)c4)CC3C2)CC1 (stereo partly drawn)
3 | 373 nM | COc1cccc(NC(=O)N(CCN2CC[C@@H](O)C2)C2CC[C@]3(c4cccc(C#N)c4)CC3C2)c1 (stereo partly drawn)
4 | 2.4 nM | CC(C)N(CCN(C(=O)Nc1cc(Cl)nc(Cl)c1)C1CC[C@]2(c3cccc(C#N)c3)CC2C1)C(C)C (stereo partly drawn)
5 | 23 nM | CC(=O)C1CCCN1CCN(C(=O)Nc1ccc(F)c(Cl)c1)C1CC[C@]2(c3cccc(C#N)c3)CC2C1 (stereo partly drawn)
6 | 60 nM | N#Cc1cccc([C@]23CCC(N(CCN4CC[C@@H](O)C4)C(=O)Nc4cccc([N+](=O)[O-])c4)CC2C3)c1 (stereo partly drawn)
7 | 29 nM | CCO/N=C/c1cccc([C@]23CCC(N(CCN(C(C)C)C(C)C)C(=O)Nc4ccc(F)c(Cl)c4)CC2C3)c1 (stereo partly drawn)
8 | 27 nM | N#Cc1cccc([C@]23CCC(N(CCN4CC[C@@H](O)C4)C(=O)Nc4cccc(Cl)c4)CC2C3)c1 (stereo partly drawn)
9 | 54 nM | CC(C)N(CCN(C(=O)Nc1ccc(F)c(Cl)c1)C1CC[C@]2(c3cccc(CN4CCN(C)CC4)c3)CC2C1)C(C)C (stereo partly drawn)
10 | 15 nM | N#Cc1cccc([C@]23CCC(N(CCN4CC[C@@H](O)C4)C(=O)Nc4cc(F)cc(F)c4)CC2C3)c1 (stereo partly drawn)
11 | 7.6 nM | CC(C)N(CCN(C(=O)Nc1cccc(C#N)c1)C1CC[C@]2(c3cccc(C#N)c3)CC2C1)C(C)C (stereo partly drawn)
12 | 26 nM | CS(=O)(=O)N1CCC(CN(C(=O)Nc2ccc(F)c(C(F)(F)F)c2)C2CC[C@]3(c4cccc(C#N)c4)CC3C2)CC1 (stereo partly drawn)
13 | 7.19 nM | CS(=O)(=O)N1CCC(CN(C(=O)Nc2ccc(F)c(Cl)c2)C2CC[C@]3(c4cccc(C#N)c4)CC3C2)CC1 (stereo partly drawn)
14 | 20 nM | N#Cc1cccc([C@]23CCC(N(CCN4CC[C@@H](O)C4)C(=O)Nc4cccc(F)c4)CC2C3)c1 (stereo partly drawn)
15 | 134 nM | N#Cc1cccc([C@]23CCC(N(CCN4CC[C@@H](O)C4)C(=O)Nc4ccc(OCOc5ccccc5)c(OCOc5ccccc5)c4)CC2C3)c1 (stereo partly drawn)
16 | 84.9 nM | CC1CCC(C2=CCC(N(CCN3CCCC3)C(=O)Nc3ccc(F)c(Cl)c3)CC2)S1 (stereo not drawn)
17 | 312 nM | CC(=O)N1CCC(CN(C(=O)Nc2ccc(F)c(Cl)c2)C2CC[C@]3(c4cccc(C#N)c4)CC3C2)CC1 (stereo partly drawn)
18 | 15 nM | COC1CCN(CCN(C(=O)Nc2ccc(F)c(Cl)c2)C2CC[C@]3(c4cccc(C#N)c4)CC3C2)CC1 (stereo partly drawn)
19 | 10.4 nM | CC(C)N(CCN(C(=O)Nc1ccc(F)cc1)C1CC[C@]2(c3cccc(C#N)c3)CC2C1)C(C)C (stereo partly drawn)
20 | 15 nM | N#Cc1cccc([C@]23CCC(N(CCN4CCCCCC4)C(=O)Nc4ccc(F)c(Cl)c4)CC2C3)c1 (stereo partly drawn)
21 | 92 nM | N#Cc1cccc(NC(=O)N(CCN2CC[C@@H](O)C2)C2CC[C@]3(c4cccc(C#N)c4)CC3C2)c1 (stereo partly drawn)

Row | Ki | Structure (SMILES)
22 | 11 nM | N#Cc1cccc([C@]23CCC(N(CCN4CCOCC4)C(=O)Nc4ccc(F)c(Cl)c4)CC2C3)c1 (stereo partly drawn)
23 | 31 nM | CC(=O)C1CCC(C2=CCC(N(CCN3CCCC3)C(=O)Nc3ccc(F)c(Cl)c3)CC2)S1 (stereo not drawn)
24 | 4.4 nM | N#Cc1cccc([C@]23CCC(N(CCNCCF)C(=O)Nc4cc(Cl)nc(Cl)c4)CC2C3)c1 (stereo partly drawn)
25 | 11 nM | CC1CC[C@@H](CO)N1CCN(C(=O)Nc1ccc(F)c(Cl)c1)C1CC[C@]2(c3cccc(C#N)c3)CC2C1 (stereo partly drawn)
26 | 15 nM | CN(C)Cc1cccc([C@]23CCC(N(CC4CCN(S(C)(=O)=O)CC4)C(=O)Nc4ccc(F)c(Cl)c4)CC2C3)c1 (stereo partly drawn)
27 | 80 nM | CS(=O)(=O)N1CCC(CCN(C(=O)Nc2ccc(F)c(C(F)(F)F)c2)C2CC[C@]3(c4cccc(C#N)c4)CC3C2)CC1 (stereo partly drawn)
28 | 295 nM | CS(=O)(=O)N1CCCCC1CN(C(=O)Nc1ccc(F)c(Cl)c1)C1CC[C@]2(c3cccc(C#N)c3)CC2C1 (stereo partly drawn)
29 | 48 nM | Cc1ccc(NC(=O)N(CCN2CC[C@@H](O)C2)C2CC[C@]3(c4cccc(C#N)c4)CC3C2)cc1F (stereo partly drawn)
30 | 21 nM | CCS(=O)(=O)N1CCC(CN(C(=O)Nc2ccc(F)c(F)c2)C2CC[C@]3(c4cccc(C#N)c4)CC3C2)CC1 (stereo partly drawn)
31 | 5.4 nM | CS(=O)(=O)N1CCC(CN(C(=O)Nc2ccc(F)c(F)c2)C2CC[C@]3(c4cccc(C#N)c4)CC3C2)CC1 (stereo partly drawn)
32 | 1.6 nM | CC(C)N(CCN(C(=O)Nc1cc(Cl)nc(Cl)c1)C1CC[C@]2(c3cccc(C#N)c3)CC2C1)[C@@H](C)CO (stereo partly drawn)
33 | 1.2 nM | CC1CC[C@@H](CO)N1CCN(C(=O)Nc1cc(Cl)nc(Cl)c1)C1CC[C@]2(c3cccc(C#N)c3)CC2C1 (stereo partly drawn)
34 | 48 nM | CC(C)N(CCN(C(=O)Nc1ccc(F)c(Cl)c1)C1CC[C@]2(c3cccc(CO)c3)CC2C1)C(C)C (stereo partly drawn)
35 | 9.71 nM | CS(=O)(=O)N1CCC(CN(C(=O)Nc2cccc(F)c2)C2CC[C@]3(c4cccc(C#N)c4)CC3C2)CC1 (stereo partly drawn)
36 | 4.1 nM | CO/N=C/c1cccc([C@]23CCC(N(CCN(C(C)C)C(C)C)C(=O)Nc4ccc(F)c(Cl)c4)CC2C3)c1 (stereo partly drawn)
37 | 1.6 nM | CC(C)N(CCO)CCN(C(=O)Nc1cc(Cl)nc(Cl)c1)C1CC[C@]2(c3cccc(C#N)c3)CC2C1 (stereo partly drawn)
38 | 16 nM | C[N+]1(CCN(C(=O)Nc2ccc(F)c(Cl)c2)C2CC[C@]3(c4cccc(C#N)c4)CC3C2)CCCC1 (stereo partly drawn)
39 | 34 nM | N#Cc1cccc([C@]23CCC(N(CCN4CC[C@@H](O)C4)C(=O)Nc4cccc(Br)c4)CC2C3)c1 (stereo partly drawn)
40 | 22 nM | N#Cc1cccc([C@]23CCC(N(CCN4CCCC(O)C4)C(=O)Nc4ccc(F)c(Cl)c4)CC2C3)c1 (stereo partly drawn)
41 | 15 nM | C[N+]1(CCN(C(=O)Nc2ccc(F)c(Cl)c2)C2CC[C@]3(c4cccc(C#N)c4)CC3C2)CCCCC1 (stereo partly drawn)
42 | 5.2 nM | CC(C)N(CCN(C(=O)Nc1ccc(F)c(Cl)c1)C1CC[C@]2(c3cccc(C#N)c3)CC2C1)[C@@H](C)CO (stereo partly drawn)

Row | Ki | Structure (SMILES)
43 | 1.9 nM | CC(C)NCCN(C(=O)Nc1cc(Cl)nc(Cl)c1)C1CC[C@]2(c3cccc(C#N)c3)CC2C1 (stereo partly drawn)
44 | 4.5 nM | CC(C)N(CCN(C(=O)Nc1cc(F)cc(F)c1)C1CC[C@]2(c3cccc(C#N)c3)CC2C1)C(C)C (stereo partly drawn)
45 | 54 nM | N#Cc1cccc([C@]23CCC(N(CCN4CC[C@@H](O)C4)C(=O)Nc4ccc(F)cc4)CC2C3)c1 (stereo partly drawn)
46 | 211 nM | CS(=O)(=O)N1CCCC(CN(C(=O)Nc2ccc(F)c(Cl)c2)C2CC[C@]3(c4cccc(C#N)c4)CC3C2)C1 (stereo partly drawn)
47 | 18 nM | CC(C)N(CCN(C(=O)Nc1ccc(F)c(Cl)c1)C1CC[C@]2(c3cccc(CNS(C)(=O)=O)c3)CC2C1)C(C)C (stereo partly drawn)
48 | 2.1 nM | CC(C)N(CCN(C(=O)Nc1cccc(F)c1)C1CC[C@]2(c3cccc(C#N)c3)CC2C1)C(C)C (stereo partly drawn)
49 | 31 nM | CC(=O)NCc1cccc([C@]23CCC(N(CCN(C(C)C)C(C)C)C(=O)Nc4ccc(F)c(Cl)c4)CC2C3)c1 (stereo partly drawn)
50 | 181 nM | CNC(=O)N1CCC(CN(C(=O)Nc2ccc(F)c(C(F)(F)F)c2)C2CC[C@]3(c4cccc(C#N)c4)CC3C2)CC1 (stereo partly drawn)
51 | 21 nM | CC(C)N(CCN(C(=O)Nc1ccc(F)c(Cl)c1)C1CC[C@]2(c3cccc(CN4CC[C@H](O)C4)c3)CC2C1)C(C)C (stereo partly drawn)
52 | 2.7 nM | CC(C)N(CCN(C(=O)Nc1cccc([N+](=O)[O-])c1)C1CC[C@]2(c3cccc(C#N)c3)CC2C1)C(C)C (stereo partly drawn)
53 | 20 nM | N#Cc1cccc([C@]23CCC(N(CCN4CC[C@@H](O)C4)C(=O)Nc4ccc(F)c(F)c4)CC2C3)c1 (stereo partly drawn)
54 | 9.4 nM | CC(C)N(CCN(C(=O)Nc1ccc(F)c(Cl)c1)C1CC[C@]2(c3cccc(C#N)c3)CC2C1)[C@H](C)CO (stereo partly drawn)
55 | 46 nM | CCN(CC)Cc1cccc([C@]23CCC(N(CCN(C(C)C)C(C)C)C(=O)Nc4ccc(F)c(Cl)c4)CC2C3)c1 (stereo partly drawn)
56 | 7.76 nM | CC(C)N(CCN(C(=O)Nc1ccc(F)c(F)c1)C1CC[C@]2(c3cccc(Br)c3)CC2C1)C(C)C (stereo partly drawn)
57 | 5.7 nM | CC(C)N(CCN(C(=O)Nc1cccc(Br)c1)C1CC[C@]2(c3cccc(C#N)c3)CC2C1)C(C)C (stereo partly drawn)
58 | 132 nM | N#Cc1cccc([C@]23CCC(N(CCN4CC[C@@H](O)C4)C(=O)Nc4ccccc4)CC2C3)c1 (stereo partly drawn)
59 | 4.98 nM | CC(C)N(CCN(C(=O)Nc1ccc(F)c(Cl)c1)C1CC[C@]2(c3cccc(C#N)c3)CC2C1)C(C)C (stereo partly drawn)
60 | 13 nM | CC(C)N(CCN(C(=O)Nc1ccc(F)c(Cl)c1)C1CC[C@]2(c3cccc(CN(C)C)c3)CC2C1)C(C)C (stereo partly drawn)
61 | 3.3 nM | CN(C)Cc1cccc([C@]23CCC(N(CC4CCN(S(C)(=O)=O)CC4)C(=O)Nc4cc(Cl)nc(Cl)c4)CC2C3)c1 (stereo partly drawn)
62 | 6 nM | CC(C)N(CCN(C(=O)Nc1cccc(Cl)c1)C1CC[C@]2(c3cccc(C#N)c3)CC2C1)C(C)C (stereo partly drawn)
63 | 12 nM | CC(C)N(CCF)CCN(C(=O)Nc1ccc(F)c(Cl)c1)C1CC[C@]2(c3cccc(C#N)c3)CC2C1 (stereo partly drawn)
